From PMC11173846, “Comparison of HPLC, HPTLC, and In Silico Lipophilicity Parameters Determined for 5-Heterocyclic 2-(2,4-Dihydroxyphenyl)-1,3,4-thiadiazoles” (Molecules, 2024)

Assay: Chromatographic lipophilicity overall (HPTLC and HPLC systems), structure-retention comparison and PCA
Type: physicochemical
Details: for lipophilicity by heterocyclic substituent (chromatographic parameters, in words): Tables S1–S7, all chromatographic systems; for lipophilicity by first principal component score (average value of lipophilicity, in words): PCA of experimental and computational data, PC1
Method: Chromatographic studies were carried out using both HPTLC and HPLC methods under the isocratic conditions. In all systems, there were stated linear relationships between the RM (HPTLC) or log kw (HPLC) values and the organic modifier content (ϕ) in the mobile phase. This is described by the Soczewinski–Wachtmeister equation [31] as follows:RM = RMw + bϕ(1) log k = log kw + bϕ(2) where ϕ expresses the volume fraction of the organic solvent in the mobile phase; RMw (log kw) corresponds to 0% of the organic solvent content in the mobile phase; b represents the slope of a regression line.
The retention behavior of the compounds was analyzed by HPTLC using the octyl C8 and octadecyl C18 stationary phases and MeOH, ACN, acetone, and dioxane as organic modifiers (Supplementary Materials Tables S1–S4). The chromatographic evaluation of using the HPLC methods was made in the systems, with C8/MeOH, C8/ACN, and C18/ACN analogous to HPTLC (Tables S5 and S7). The measurements using the IAM and Chol stationary phases and the buffered mobile phases (pH = 7.4) were additionally used (Supplementary Materials Tables S5–S7).
The lipophilicity parameters for the Et derivatives were usually higher than those for chlorine ones (1 and 2; 7 and 8). This was an expected effect, taking into account the hydrophobicity parameter π (Hansch–Fujita π constant) for these substituents. Deviations from this order were sometimes observed. […] (Supplementary Materials Tables S1–S7).
To investigate the similarity between the investigated compounds, the obtained experimental and computational data were analyzed using scaled principal component analysis.
The most important conclusion from the PCA analysis is that all coefficients, both computational and experimental ones, were highly redundant. In total, 85% of the information was common for them and could be collected together to form the first principal component. The score could be interpreted as an average value of lipophilicity.

Row | Compound | lipophilicity by heterocyclic substituent (chromatographic parameters, in words) | lipophilicity by first principal component score (average value of lipophilicity, in words)
1 | Oc1cc(O)c(-c2nnc(-c3ccco3)s2)cc1Cl [Compound 1] | low lipophilicity | –
2 | CCc1cc(-c2nnc(-c3cc4cc(Br)ccc4n3C)s2)c(O)cc1O [Compound 5] | – | highest lipophilicity
3 | Oc1ccc(-c2nnc(-c3ccc4nonc4c3)s2)c(O)c1 [Compound 6] | low lipophilicity | –
4 | Oc1ccc(-c2nnc(-c3ccn4c(Br)cnc4c3)s2)c(O)c1 [Compound 9] | – | lowest lipophilicity
5 | Oc1ccc(-c2nnc(-c3ccc(N4CCOCC4)nc3)s2)c(O)c1 [Compound 13] | lowest lipophilicity | –
